Assay [1] concerns gintonin-induced CaCC currents. The experiment in a line: Effects of PLC inhibitor, IP3 receptor antagonist or Ca2+ chelator on crude gintonin-mediated CaCC activation in Xenopus oocytes. It counts as cell-based, Xenopus laevis. The conditions noted are these: for crude gintonin-induced CaCC currents, % of the control: in presence of the PLC inhibitor or inactive analog. As for the experimental part:
Two-electrode voltage-clamp recordings were obtained from individual oocytes placed in a small Plexiglas net chamber (0.5 ml). Electrophysiological experiments were performed at room temperature using microelectrodes filled with 3 M KCl (resistance of 0.2-0.7 MΩ) and an Oocyte Clamp amplifier (OC-725C; Warner Instrument, Hamden, Conn.), followed by recording CaCC at −80 mV holding potential.
For this, the effect of the IP3 receptor antagonist, membrane permeable 2-aminoethxydiphenyl borate (2-APB), on gintonin-induced CaCC activation was examined.

Assay [2] relates to gintonin-mediated elevation of [Ca^2+]i in mouse EAT cells. Kind of assay: Effects of active or inactive PLC inhibitors on gintonin-mediated [Ca2+]i elevation in mouse EAT cells. It counts as cell-based. The following applies: for effect on the action of gintonin on [Ca^2+]i: mouse EAT cells, irrespective of the presence of extracellular Ca^2+; for effect on gintonin (100 ng/mL)-mediated elevation of [Ca^2+]i: pretreatment 10 μM, Ca^2+ buffer (1.5 mM Ca^2+) and Ca^2+ free buffer (0.2 mM EGTA), n=4-5/group. As for the experimental part: Data are represented as means ±SEM (n=4-5/group).
[Ca^2+]i was estimated in fura 2-loaded cells in suspension using an RF-5300PC intracellular ion measurement system (Shimadzu Corporation, Japan). The fura 2-AM loaded cells were diluted with an experimental medium to a final density of 2˜4×10^6 cells/mL and transferred to polystyrene cuvettes (Elkay Ultra-VU). The cells were stirred using Teflon-coated magnets, and the cuvette housing was thermostatically controlled at 37° C. The excitation wavelengths were alternated between 340 and 380 nm under computer control. Emission was detected at 510 nm. Excitation and emission slit widths were 5 nm. Background correction was performed as described by Jorgensen et al. Digitonin and EGTA were used as concentration adjustment reagents to make a condition in which fura 2 completely combines with and disassociates from Ca^2+.

Turning to `NCCOB(c1ccccc1)c1ccccc1` [2-APB, 2-aminoethxydiphenyl borate], the “inward CaCC currents induced by gintonin after addition of 2-APB” value in assay [1] (P<0.01 vs control current) is 0.03±0.01 μA. Also, the “effect on gintonin-induced inward CaCC currents” value in assay [1] (addition of 2-APB) is recorded as “almost completely abrogated”.

On to `CC(=O)OCOC(=O)CN(CC(=O)OCOC(C)=O)c1ccccc1OCCOc1ccccc1N(CC(=O)OCOC(C)=O)CC(=O)OCOC(C)=O` [BAPTA-AM, 1,2-bis-(2-aminophenoxy)ethane-N,N,N′,N′-tetraacetic acid acetoxymethyl ester], for which the “effect on gintonin-mediated CaCC activation” value in assay [1] (10 μM final) was “almost extinguished”.

As for `COc1ccc2c(c1)CC[C@@H]1[C@@H]2CC[C@]2(C)[C@@H](NCCCCCCN3C(=O)CCC3=O)CC[C@@H]12` [U-73343], in assay [2], the “effect on the action of gintonin on [Ca^2+]i” value is “not” and the “effect on gintonin (100 ng/mL)-mediated elevation of [Ca^2+]i” value was “not”. Besides, the “crude gintonin-induced CaCC currents, % of the control” value in assay [1] turned out to be 97.2±0.2%.

Regarding `COc1ccc2c(c1)CC[C@@H]1[C@@H]2CC[C@]2(C)[C@@H](NCCCCCCN3C(=O)C=CC3=O)CC[C@@H]12` [U-73122], in assay [2], the “effect on the action of gintonin on [Ca^2+]i” value is on record as “almost abrogate” and the “effect on gintonin (100 ng/mL)-mediated elevation of [Ca^2+]i” value is “blocked”. The “crude gintonin-induced CaCC currents, % of the control” value in assay [1] was 3.9±0.3%.

For the origin of these results see patent US8563052B2, “Method for preparing gintonin, which is a novel glycolipoproetin from panax ginseng, and gintonin, which is a novel glycolipoprotein, prepared by the method” (Konkuk University Industrial Cooperation Corp., priority 2009, dated 2013).
